From ChEMBL document CHEMBL1128694, “Specific inhibition of poly(ADP-ribose) glycohydrolase by adenosine diphosphate (hydroxymethyl)pyrrolidinediol” (J Med Chem, 1995) come the findings set out here.

Holding throughout (conditions): Meleagris gallopavo
The target in assay [1] is T1, ADP-ribosyltransferase (Homo sapiens) (UniProt P52961).
T1 sequence (whole entry): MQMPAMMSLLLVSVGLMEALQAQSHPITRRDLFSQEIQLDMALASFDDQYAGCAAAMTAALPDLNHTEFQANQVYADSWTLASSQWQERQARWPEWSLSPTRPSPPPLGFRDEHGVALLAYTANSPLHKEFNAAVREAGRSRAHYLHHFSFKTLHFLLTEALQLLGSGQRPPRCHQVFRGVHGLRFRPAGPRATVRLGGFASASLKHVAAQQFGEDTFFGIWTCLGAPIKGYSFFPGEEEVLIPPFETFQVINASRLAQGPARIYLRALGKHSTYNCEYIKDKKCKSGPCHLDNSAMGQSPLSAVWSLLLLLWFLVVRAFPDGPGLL
The assay can be described thus: Inhibition of ADP-ribosyltransferase 1 that catalyze ADP-ribosyltransferase was measured at 0 uM concentration.

Assay [2] deals with T1, ADP-ribosyltransferase (Homo sapiens). The assay can be described thus: Inhibition of ADP-ribosyltransferase 1 that catalyze ADP-ribosyltransferase was measured at 100 uM concentration.
Assay [3] shares this target. The assay can be described thus: Inhibition of ADP-ribosyltransferase 1 that catalyze ADP-ribosyltransferase was measured at 1000 uM concentration.

The structures appear in SMILES notation.

Consider `Nc1ncnc2c1ncn2[C@@H]1O[C@H](COP(=O)(O)OP(=O)(O)OC[C@H]2NC[C@H](O)[C@@H]2O)[C@@H](O)[C@H]1O`, for which the Activity was found to be 0.06 units/assay in assay [1], 0.07 units/assay in assay [2] and 0.05 units/assay in assay [3].
